Test results reported in patent publication US20150056702A1, “METHOD AND KIT FOR CULTURING STEM CELLS” (China Medical University, priority 2013, published 2015).

Columns and labels:
[1] = test system: ES cells; assay: Alkaline phosphatase staining of ES cells; format: cell-based, mouse
Procedure: The following steps were conducted in order to culture ES cells: • (1) preparing a stem cell medium: DMEM+15% heat-inactivated FBS+NEAA (0.1 mM)+L-glutamine (2 mM)+β-mercaptoethanol (0.2 mM); • (2) preparing a BP-containing solution: dissolving BP into DMSO to form a BP-containing solution (100 mg/ml), and storing the solution at −20° C.; • (3) adding different amounts of the BP-containing solution in step (2) into the stem cell medium in step (1) to form different BP-containing mediums, wherein the amount of BP were about 5, 10, 20 or 40 μg per milliliter of the stem cell medium respectively (i.e. the experimental group mediums: BP5, BP10, BP20 and BP40); and • (4) using the BP-containing medium of in step (3) to culture a ES cell (retrieved from the embryos in the blastula stage of 129sv/J mice) at 37° C., 5% CO2 and 95% humidity on the feeder cells provided by Example 1.
The following procedure was conducted in proper order to culture the ES cells: • (1) preparing a stem cell medium: • LIF-containing medium (without BP): DMEM+15% heat-inactivated FBS+NEAA (0.1 mM)+L-glutamine (2 mM)+(3-mercaptoethanol (0.2 mM)+LIF (4 ng/ml); and • control medium (without BP): DMEM+15% heat-inactivated FBS+NEAA (0.1 mM)+L-glutamine (2 mM)+β-mercaptoethanol (0.2 mM); • (2) using the medium in step (1) to culture a ES cell (retrieved from embryos in the blastula stage of 129sv/J mice) at 37° C., 5% CO2 and 95% humidity on the feeder cells provided by Example 1.
Alkaline phosphatase is a marker protein of stem cells. The activity measured by staining could be used to determine if BP can effectively maintain the self-renewal and/or pluripotency of stem cells.
An experimental group medium (BP5, BP10, BP20 or BP40), a LIF-containing medium (without BP) and a control group medium (without BP) were used respectively to culture ES cells in a 6-well culture dish with an initial density of 1×10^4 per well for 72 hours. The medium was removed and the cells were washed two times with PBS. Next, PBS was removed, and 1 ml of 80% ethanol was added into each well to perform the fixation at 4° C. for 2 to 24 hours. Next, ethanol was removed, and then the cells were washed one time with distilled water. The distilled water was added again to soak the cells for 2 to 3 minutes, and then be removed. Next, the cells were soaked with a Tris-HCl buffer (100 mM, pH 8.2 to 8.5) at room temperature for 5 minutes, and then, the buffer was removed. Next, a Leukocyte Alkaline Phosphatase kit (Vector) was used to perform the staining for 20 to 30 minutes, and then the Alkaline Phosphatase Substrate working solution was removed, the cells were soaked and washed by Tris-HCl buffer (100 mM, pH 8.2 to 8.5) and then be observed by a fluorescent microscope to count the number of the AP-positive clones. The undifferentiated ES cells with a higher activity show a red color, while the differentiated ES cells with a lower activity show a weak red color or are even colorless.

[2] = test system: Stat3; assay: Real-time PCR, Stat3 mRNA in ES cells; format: cell-based, mouse; conditions: for Stat3 Gene expression level: ES cells, control group = 100%
Procedure: An experimental group medium (BP5, BP10, BP20 or BP40) and a control group medium (without BP) were added respectively to perform the following steps. ES cells were cultured with an initial density of 1×10^4 per well in a 6-well culture dish. The medium was removed until the cells growth to be about 70 to 80% confluence, and then 1 ml TRIzol (Invitrogen) was added into each well. The cells were incubated for 5 minutes, and then was scraped by a spatula and placed into a 1.5 ml microtube to be lysed adequately. Chloroform (0.2 ml) was added into the microtubes. The mixture was shaken up and down for 15 seconds, and then incubated at room temperature for 2 to 3 minutes. Thereafter, the mixture was centrifuged at 12000 rpm at 4° C. for 15 minutes, and the supernatant was removed into another 1.5 ml microtube and isopropanol (0.5 ml) was added into the microtube with well mixing. The mixture was incubated at room temperature for 10 minutes and then centrifuged at 12000 rpm at 4° C. for 10 minutes. The supernatant was then removed. One ml of 70% ethanol containing DEPC.H2O was used to wash the remaining sediment. The sediment was centrifuged at 7500 rpm at 4° C. for 5 minutes. The supernatant was removed. The sediment was dried by vacuum suction. The dried samples were dissolved in about 0.01 to 0.02 ml of DEPC.H2O to obtain the experimental group RNA and control group RNA. Both groups were stored at −80° C.
The OD value of RNA samples in both groups obtained from the above Experiment I were measured at a wavelength of 260 nm (RNA: OD260=1 for a 40 μg/mL solution). Each RNA sample (2 μl) was added with RNA-free water until the volume of the sample reached 10 μl. Two μl oligo (dT) (100 μg/ml) was added into each sample, and the samples were incubated at 65° C. for 5 minutes. Then, the samples were immediately placed on ice and spun down. Next, 6.5 μl of a reaction solution [4 μl of 5× buffer+1 μl of 0.1 M DTT+1 μl of RNase out+0.5 μl of SSIII (Invitrogen)] was added into each of the samples, and the samples were incubated at 50° C. for about 30 to 60 minutes and at 75° C. for 15 minutes to obtain the experimental group cDNA and control group cDNA. Both groups were stored at −80° C.
This experiment was used to detect the expression levels of ES cell-related genes, i.e., Oct4 and Sox2, etc. First, 4 μl of the experimental group cDNA or control group cDNA was added into each well of a 96-well micro-reaction plate, and mixed with 6 μl of a reaction solution [0.5 μl of 6 μM forward primer+0.5 μl of 6 μM reverse primer+5 μl of SYBR Green PCR Master mix (Roche)], wherein the SYBR Green PCR Master mix included the reagents needed for Q-PCR, such as dNTPs, MgCl, Taq DNA polymerase and 2×SYBR® Green I solution. […] The cycle threshold (CT) values were measured. […]

Molecule	AP-positive clones ([1]; BP5 medium (about 5 μg BP/ml), ES cells, 72 hours, control group = 100%)	AP-positive clones ([1]; BP10 medium (about 10 μg BP/ml), ES cells, 72 hours, control group = 100%)	AP-positive clones ([1]; BP20 medium (about 20 μg BP/ml), ES cells, 72 hours, control group = 100%)	AP-positive clones ([1]; BP40 medium (about 40 μg BP/ml), ES cells, 72 hours, control group = 100%)	AP-positive clones ([1]; BP-containing ES cell medium vs control group (without BP), result in words)	Stat3 Gene expression level ([2]; BP5 medium (about 5 μg BP/ml))	Stat3 Gene expression level ([2]; BP10 medium (about 10 μg BP/ml))	mRNA expression level of Stat3 ([2]; BP-containing ES cell medium (BP5 or BP10), result in words)	AP-positive clones ([1]; LIF-containing medium (LIF 4 ng/ml, without BP), ES cells, 72 hours, control group = 100%)	Stat3 Gene expression level ([2]; LIF-containing medium (LIF 4 ng/ml, without BP))
CCCC=C1OC(=O)c2ccccc21 [BP, n-butylidenephthalide]	91%	116%	116%	117%	more AP-positive clones	169%	151%	significantly up-regulated	–	–
LIF: multifunctional cell factor used to maintain pluripotency of stem cells; LIF-containing medium (4 ng/ml, without BP) as comparison	–	–	–	–	–	–	–	–	110%	194%
